The test system of the assay is Acinetobacter baumannii ATCC17961. The assay is described as follows: Antimicrobial susceptibility testing: 90% growth inhibitory concentration (IC90) determination. It is filed as cell-based. Particulars: Acinetobacter baumannii, ATCC17961, 16 h, read-out: ATCC 17961 IC90. In short, it runs like this: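 Growth inhibition derived in log phase from OD600 kinetics (every 20 minutes, 16h, 35±2° C) of ATCC17961 in Iso-Sensitest medium, inoculum ~5×10^5 CFU/ml. Compounds tested as twofold series, 10 points (e.g. 50 to 0.097 μM final); IC90 and IC50 reported.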

Setting [1] is: 90% growth inhibitory concentration, Acinetobacter baumannii ATCC17961, Iso-Sensitest broth, OD 600 nm over 16 h.

SMILES strings stand for the structures. Structures can show the parent of a compound that is named as a salt. Where two headings read alike, the source gives them in different places.

The term IC90 denotes the concentration at which the effect reaches the 90% level.

Take `COCCn1cc(-c2ccc(-c3cnc(C(=O)Nc4ccc(C(=O)N5CCN(C(=O)C[N+]6(C)CCC(C(N)=O)C6)CC5)c(Cl)c4)n3C)c(F)c2F)c(C)n1` (stereo not shown) [Example C7, N-[4-[4-[2-(3-carbamoyl-1-methyl-pyrrolidin-1-ium-1-yl)acetyl]piperazine-1-carbonyl]-3-chloro-phenyl]-5-[2,3-difluoro-4-[1-(2-methoxyethyl)-3-methyl-pyrazol-4-yl]phenyl]-1-methyl-imidazole-2-carboxamide; formate]: the IC90 under setting [1] was determined as 140 nM. Turning to `COCCn1cc(-c2ccc(-c3cnc(C(=O)Nc4ccc(C(=O)N5CCN(C(=O)C[N+]6(C)CC[C@@H](O)C6)CC5)c(Cl)c4)n3C)c(F)c2F)c(C)n1` (stereo partly drawn) [Example C8, N-[3-chloro-4-[4-[2-[(3R)-3-hydroxy-1-methyl-pyrrolidin-1-ium-1-yl]acetyl]piperazine-1-carbonyl]phenyl]-5-[2,3-difluoro-4-[1-(2-methoxyethyl)-3-methyl-pyrazol-4-yl]phenyl]-1-methyl-imidazole-2-carboxamide; formate], the IC90 was 210 nM. Regarding `COCCn1cc(-c2ccc(-c3cnc(C(=O)Nc4ccc(C(=O)N5CCN(C(=O)C[N+]6(C)CC[C@H](O)C6)CC5)c(Cl)c4)n3C)c(F)c2F)c(C)n1` (stereo partly drawn) [Example C9, N-[3-chloro-4-[4-[2-[(3S)-3-hydroxy-1-methyl-pyrrolidin-1-ium-1-yl]acetyl]piperazine-1-carbonyl]phenyl]-5-[2,3-difluoro-4-[1-(2-methoxyethyl)-3-methyl-pyrazol-4-yl]phenyl]-1-methyl-imidazole-2-carboxamide; formate], the IC90 was determined as 260 nM. Still for that read-out and setting: the figure for `COCCn1cc(-c2ccc(-c3cnc(C(=O)Nc4ccc(C(=O)N5CCN(C(=O)C[N+]6(C)C[C@@H](O)[C@H](O)C6)CC5)c(Cl)c4)n3C)c(F)c2F)c(C)n1` [Example C10, N-[3-chloro-4-[4-[2-[(3R,4R)-3,4-dihydroxy-1-methyl-pyrrolidin-1-ium-1-yl]acetyl]piperazine-1-carbonyl]phenyl]-5-[2,3-difluoro-4-[1-(2-methoxyethyl)-3-methyl-pyrazol-4-yl]phenyl]-1-methyl-imidazole-2-carboxamide; formate] is 280 nM. With `COCCn1nc(C)c(-c2ccc(-c3cnc(C(=O)Nc4ccc(C(=O)N5CCN(C(=O)C[N+]6(C)CCC(O)C6)CC5)c(Cl)c4)n3C)c(F)c2F)c1C` (stereo not shown) [Example C11, N-[3-chloro-4-[4-[2-(3-hydroxy-1-methyl-pyrrolidin-1-ium-1-yl)acetyl]piperazine-1-carbonyl]phenyl]-5-[2,3-difluoro-4-[1-(2-methoxyethyl)-3,5-dimethyl-pyrazol-4-yl]phenyl]-1-methyl-imidazole-2-carboxamide; formate], the IC90 under setting [1] is 320 nM. In the case of `COCCn1ncc(-c2ccc(-c3cnc(C(=O)Nc4ccc(C(=O)N5CCN(C(=O)C[N+]6(C)CCCC6)CC5)c(Cl)c4)n3C)c(F)c2F)c1C` [Example C14, N-[3-chloro-4-[4-[2-(1-methylpyrrolidin-1-ium-1-yl)acetyl]piperazine-1-carbonyl]phenyl]-5-[2,3-difluoro-4-[1-(2-methoxyethyl)-5-methyl-pyrazol-4-yl]phenyl]-1-methyl-imidazole-2-carboxamide; 2,2,2-trifluoroacetate], under setting [1], the IC90 is 82 nM.

With `COCCn1cc(-c2ccc(-c3cnc(C(=O)Nc4ccc(C(=O)N5CCN(C(=O)[C@@H]6[C@@H](O)CC[N+]6(C)C)CC5)c(Cl)c4)n3C)c(F)c2F)c(C)n1` [Example D1, N-[3-chloro-4-[4-[(2S,3S)-3-hydroxy-1,1-dimethyl-pyrrolidin-1-ium-2-carbonyl]piperazine-1-carbonyl]phenyl]-5-[2,3-difluoro-4-[1l-(2-methoxyethyl)-3-methyl-pyrazol-4-yl]phenyl]-1-methyl-imidazole-2-carboxamide; formate], the IC90 under setting [1] is 280 nM. Still for that read-out and setting: with `COCCn1cc(-c2ccc(-c3cnc(C(=O)Nc4ccc(C(=O)N5CCN(C(=O)C6CC[N+](C)(C)CC6O)CC5)c(Cl)c4)n3C)c(F)c2F)c(C)n1` (stereo not shown) [Example D2, N-[3-chloro-4-[4-(3-hydroxy-1,1-dimethyl-piperidin-1-ium-4-carbonyl)piperazine-1-carbonyl]phenyl]-5-[2,3-difluoro-4-[1-(2-methoxyethyl)-3-methyl-pyrazol-4-yl]phenyl]-1-methyl-imidazole-2-carboxamide; formate] the figure was 210 nM; with `COCCn1ncc(-c2ccc(-c3cnc(C(=O)Nc4ccc(C(=O)N5CCC(C(=O)N6CC[N+](C)(C)C(CO)C6)CC5)c(Cl)c4)n3C)c(F)c2F)c1C` (stereo not shown) [Example D6, N-[3-chloro-4-[4-[3-(hydroxymethyl)-4,4-dimethyl-piperazin-4-ium-1-carbonyl]piperidine-1-carbonyl]phenyl]-5-[2,3-difluoro-4-[1-(2-methoxyethyl)-5-methyl-pyrazol-4-yl]phenyl]-1-methyl-imidazole-2-carboxamide; formate], 85 nM; with `COCCn1cc(-c2ccc(-c3cnc(C(=O)Nc4ccc(C(=O)N5CCN(C(=O)[C@@H]6C[C@@H](O)C[N+]6(C)C)CC5)c(Cl)c4)n3C)c(F)c2F)c(C)n1` [Example D7, N-[3-chloro-4-[4-[(2S,4R)-4-hydroxy-1,1-dimethyl-pyrrolidin-1-ium-2-carbonyl]piperazine-1-carbonyl]phenyl]-5-[2,3-difluoro-4-[1-(2-methoxyethyl)-3-methyl-pyrazol-4-yl]phenyl]-1-methyl-imidazole-2-carboxamide; formate], 150 nM. Still for that read-out and setting: with `COCCn1cc(-c2ccc(-c3cnc(C(=O)Nc4ccc(C(=O)N5CCN(C(=O)[C@H]6C[C@H](O)C[N+]6(C)C)CC5)c(Cl)c4)n3C)c(F)c2F)c(C)n1` [Example D8, N-[3-chloro-4-[4-[(2R,4S)-4-hydroxy-1,1-dimethyl-pyrrolidin-1-ium-2-carbonyl]piperazine-1-carbonyl]phenyl]-5-[2,3-difluoro-4-[1-(2-methoxyethyl)-3-methyl-pyrazol-4-yl]phenyl]-1-methyl-imidazole-2-carboxamide; formate] the figure was 300 nM; with `COCCn1cc(-c2ccc(-c3cnc(C(=O)Nc4ccc(C(=O)N5CCN(C(=O)[C@H]6C[C@@H](O)C[N+]6(C)C)CC5)c(Cl)c4)n3C)c(F)c2F)c(C)n1` [Example D9, N-[3-chloro-4-[4-[(2R,4R)-4-hydroxy-1,1-dimethyl-pyrrolidin-1-ium-2-carbonyl]piperazine-1-carbonyl]phenyl]-5-[2,3-difluoro-4-[1-(2-methoxyethyl)-3-methyl-pyrazol-4-yl]phenyl]-1-methyl-imidazole-2-carboxamide; formate], 300 nM. In the case of `COCCn1cc(-c2ccc(-c3cnc(C(=O)Nc4ccc(C(=O)N5CCN(C(=O)[C@@H]6C[C@H](O)C[N+]6(C)C)CC5)c(Cl)c4)n3C)c(F)c2F)c(C)n1` [Example D10, N-[3-chloro-4-[4-[(2S,4S)-4-hydroxy-1,1-dimethyl-pyrrolidin-1-ium-2-carbonyl]piperazine-1-carbonyl]phenyl]-5-[2,3-difluoro-4-[1-(2-methoxyethyl)-3-methyl-pyrazol-4-yl]phenyl]-1-methyl-imidazole-2-carboxamide; formate], the IC90 under setting [1] came to 210 nM.

The record behind these values is patent US12421211B2, “Heterocyclic compounds” (Hoffmann-La Roche Inc., priority 2021, dated 2025).
